From patent US8178490B2, “Polybasic bacterial efflux pump inhibitors and therapeutic uses thereof” (priority 2007, dated 2012)
≈ marks a conversion by molar mass, not a printed value.

Assays:
[1] = system: P. aeruginosa PAM1723, overexpressing the MexABOprM efflux pump; assay type: cell-based, Pseudomonas aeruginosa; conditions: lowest inhibitor concentration giving antibacterial activity with levofloxacin at 1/8 of its MIC
Excerpt: (§1) EPI activity is defined as concentration of an EPI compound that is necessary to achieve ½ of a maximum theoretical effect in increase of antibiotic susceptibility due to efflux inhibition. The maximum theoretical effect, Emax, is defined as a ratio of antibacterial activity of antibiotics (minimal inhibitory concentration, MIC) of pump overexpressing vs. pump lacking strains. […] The strain PAM1723, overexpressing the MexABOprM efflux pump was used as a test strain. […] Azithromycin was used as test antibiotic to assess the EPI activity in Klebsiella pneumoniae. The strain KPM1004 overexpressing the AcrABTolC efflux pump was used as a test strain. […] Thus, EPI activity, that is assessed in K. pneumoniae, is a concentration of an EPI compound that is necessary to increase susceptibility to azithromicin of KPM1004 sixteen fold.
(§2) The EPI activity of the test compounds was assessed by the checkerboard assay (Antimicrobial Combinations, Antibiotics in Laboratory Medicine, Ed. Victor Lorian, M.D., Fourth edition, 1996, pp 333338, which is incorporated herein by reference in its entirety) using a broth microdilution method performed as recommended by the NCCLS (National Committee for Clinical Laboratory Standards (NCCLS), 1997, Methods for Dilution of Antimicrobial Susceptibility Tests for Bacteria That Grow Aerobically, Fourth Edition; Approved Standard. NCCLS Document M7A4, Vol 17 No. 2, which is incorporated herein by reference in its entirety). […] All EPI compounds were readily soluble in water and stock solutions were prepared at a final concentration of 10 mg/ml. Stock solutions were further diluted, according to the needs of the particular assay, in Mueller Hinton Broth (MHB). Stock solution was stored at −80° C. The checkerboard assay was performed in microtiter plates. […] EPIs were diluted in the axis, each row containing a single concentration of an EPI. […] The assay was performed in MHB with a final bacterial (PAM1723 or […]) inoculum of 5 times 10^5 CFU/ml (from an early log phase culture). Microtiter plates were incubated during 20 h at 35° C. and were read using a microtiter plate reader (Molecular Devices) at 650 nm as well as visual observation using a microtiter plate reading mirror.
(§3) Azithromycin potentiation activities of selected inhibitors for K. pneumoniae are reported as MPC16 values.

[2] = system: Klebsiella pneumoniae KPM1004 overexpressing the AcrABTolC efflux pump; assay: microbe, parasite or virus in culture; assay type: cell-based; conditions: for MPC16 (μg/mL) Azithromycin, KPM1004): lowest inhibitor concentration giving antibacterial activity with azithromycin at 1/16 of its MIC, K. pneumoniae KPM1004
Excerpt: as §1, §2, §3

[3] = Rat serum pharmacokinetics after 1.5-hour IV infusion; assay type: in vivo; conditions: […] IV infusion in 0.9% saline, total dose 2, 5, 10 or 20 mg/kg, two-compartment model
Method: In the experiment depicted in Table 7, above, rat serum pharmacokinetics of selected inhibitor compounds was evaluated after 1.5-hour IV infusion of 1.5 ml solution of corresponding efflux pump inhibitor in 0.9% saline. Depending on the concentration used the total infused dose was 2, 5, 10 or 20 mg/kg. A two-compartment model was used to fit the data and calculate PK parameters.

[4] = system: Klebsiella pneumoniae KPM1007 which lacks efflux; assay: microbe, parasite or virus in culture; assay type: cell-based; conditions: read-out: Azithromycin MIC

Compound	MPC8 (μg/mL) (Levofloxacin, PAM1723) [1]	MPC16 (μg/mL) Azithromycin, KPM1004) [2]	also measured
3-[(1S)-3-[bis(2-azaniumylethyl)carbamoyl]-1-{[(1R)-1-carbamoyl-2-[4-(trifluoromethyl)phenyl]ethyl]carbamoyl}propan-1-aminium]quinolin-1-ium tetrachloride [Compound 1]	0.3 µg/mL	0.6 µg/mL	
3-[(1S)-3-[bis(2-azaniumylethyl)carbamoyl]-1-{[(1S)-1-carbamoyl-2-[4-(trifluoromethyl)phenyl]ethyl](methyl)carbamoyl}propan-1-aminium]quinolin-1-ium tetrachloride [Compound 5]	0.6 µg/mL		
3-[(1S)-3-[bis(2-azaniumylethyl)carbamoyl]-1-{[(1S)-1-carbamoyl-2-[4-(trifluoromethyl)phenyl]ethyl]carbamoyl}propan-1-aminium]quinolin-1-ium tetrachloride [Compound 28]	1.25 µg/mL	1.25 µg/mL	
3-[(1S)-3-[bis(2-azaniumylethyl)carbamoyl]-1-{[(1S,2R)-1-carbamoyl-2-hydroxy-2-[4-(trifluoromethyl)phenyl]ethyl]carbamoyl}propan-1-aminium]quinolin-1-ium tetrachloride [Compound 3]	1.25 µg/mL	1.25 µg/mL	pharmacokinetic profile [3]: particularly attractive pharmacokinetic profiles
CC[C@H]1OC(=O)[C@H](C)[C@@H](O[C@H]2C[C@@](C)(OC)[C@@H](O)[C@H](C)O2)[C@H](C)[C@@H](O[C@@H]2O[C@H](C)C[C@H](N(C)C)[C@H]2O)[C@](C)(O)C[C@@H](C)CN(C)[C@H](C)[C@@H](O)[C@]1(C)O [Azithromycin, reference compound]			MIC ([2]; Klebsiella pneumoniae, read-out: Azithromycin MIC): 32 µg/mL; Emax (ratio of MIC of pump overexpressing vs. pump lacking strains) ([2]; azithromycin, KPM1004 vs KPM1007): 256; MIC [4]: 0.125 µg/mL (≈ 0.167 µM)
NCCN(CCN)C(=O)CC[C@H](N)C(=O)N/C(=C/c1ccc(C(F)(F)F)cc1)C(=O)Nc1cnc2ccccc2c1 [Compound 4, 3-[(1S)-3-[bis(2-azaniumylethyl)carbamoyl]-1-{[(1E)-1-carbamoyl-2-[4-(trifluoromethyl)phenyl]eth-1-en-1-yl]carbamoyl}propan-1-aminium]quinolin-1-ium tetrachloride]	1.25 µg/mL	1.25 µg/mL	
Cl.Cl.Cl.Cl.NCCN(CCN)C(=S)C(C[C@H](N)C(=O)N[C@H](Cc1ccc(C(F)(F)F)cc1)C(N)=O)c1cnc2ccccc2c1 (stereo partly drawn) [Compound 12, 3-[(1S)-3-[bis(2-azaniumylethyl)carbamothioyl]-1-{[(1R)-1-carbamoyl-2-[4-(trifluoromethyl)phenyl]ethyl]carbamoyl}propan-1-aminium]quinolin-1-ium tetrachloride]	1.25 µg/mL	1.25 µg/mL	
Cl.Cl.Cl.Cl.NCCN(CCN)C(=O)C[C@H](Nc1ccc2ncccc2c1)C(=O)N[C@@H](CC1CCCCC1)C(N)=O [Compound 13, 6-[(1S)-2-[bis(2-azaniumylethyl)carbamoyl]-1-{[(1S)-1-carbamoyl-2-cyclohexylethyl]carbamoyl}ethan-1-aminium]quinolin-1-ium tetrachloride]	1.25 µg/mL		
Cl.Cl.Cl.Cl.Cl.NCCNCCN(CCN)C(=O)C[C@H](N)C(=O)N[C@@H](CCc1ccccc1)C(=O)Nc1cnc2ccccc2c1 [Compound 188, 3-[(2S)-2-[(1S)-2-[(2-azaniumylethyl)({2-[(2-azaniumylethyl)azaniumyl]ethyl})carbamoyl]-1-formamidoethan-1-aminium]-4-phenylbutanamido]quinolin-1-ium pentachloride]	0.6 µg/mL	1.25 µg/mL	
